These results are taken from US20260216170A1, “TETRAHYDROISOQUINOLINE HETEROBIFUNCTIONAL BCL-XL DEGRADERS” (Treeline Biosciences, Inc., priority 2023, published 2026).

Where only a bound is given, the exact number is not on record here.

This assay addresses T1, Human BCL-XL protein (N-terminal HiBiT tagged BCL-XL expressed in HT1080 cells) (Homo sapiens, UniProt Q07817).
T1 construct: expressed in transfected cells; host or cells: HT-1080 (ATCC CCL-121), stably transduced with lentivirus pLV-UBC-N-HiBiT-BCL-XL-PGK-puro and selected with puromycin
Kind of assay: HiBiT Based Degradation Assay. The assay is classed as cell-based. The settings on record: 24 hours incubation; for DC50: BCL-XL degradation, HT1080 cells expressing N-HiBiT-BCL-XL, normalized with DMSO control, geometric mean for multiple data points, read-out: EC50 (24 h); for Ymin (24 h): bottom of BCL-XL degradation curve (remaining HiBiT-BCL-XL signal vs DMSO control), HT1080 cells. The method, boiled down: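 BCL-XL degradation was read as Nano-Glo HiBiT lytic luminescence relative to DMSO after a 24 h compound treatment of HT1080 cells carrying stably integrated N-HiBiT-BCL-XL. EC50 values come from four-parameter logistic curves, with the hook-curve minimum fixed as bottom, and are geometric means where tested repeatedly.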
(HiBiT is a short tag that completes a luciferase, so light tracks the accessible tagged protein.)

T1 sequence (Q07817 whole entry): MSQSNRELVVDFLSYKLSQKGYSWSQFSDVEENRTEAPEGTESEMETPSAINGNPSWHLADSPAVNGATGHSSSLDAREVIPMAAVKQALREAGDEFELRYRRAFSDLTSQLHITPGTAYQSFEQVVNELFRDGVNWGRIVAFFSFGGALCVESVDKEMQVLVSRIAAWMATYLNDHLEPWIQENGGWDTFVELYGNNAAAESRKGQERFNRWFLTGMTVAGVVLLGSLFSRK

Turning to `Cc1cc(OCC2CC3(CCN(CC(=O)Nc4ccc5c(C6CCC(=O)NC6=O)nn(C)c5c4F)CC3)C2)ccc1-c1ccc(N2CCc3cccc(C(=O)Nc4nc5ccccc5s4)c3C2)nc1C(=O)O` (centres unmarked) [Compound 122, 6-(8-(benzo[d]thiazol-2-ylcarbamoyl)-3,4-dihydroisoquinolin-2(1H)-yl)-3-(4-((7-(2-((3-(2,6-dioxopiperidin-3-yl)-7-fluoro-1-methyl-1H-indazol-6-yl)amino)-2-oxoethyl)-7-azaspiro[3.5]nonan-2-yl)methoxy)-2-methylphenyl)picolinic acid], the DC50 is 10 to 100 nM and the “Ymin (24 h)” value is listed as “B (30% ≤ Ymin < 50%)”.
On the same counts, the results for `Cc1cc(OC2CC3(CCN(CC(=O)Nc4ccc5c(C6CCC(=O)NC6=O)nn(C)c5c4)CC3)C2)ccc1-c1ccc(N2CCc3cccc(C(=O)Nc4nc5ccccc5s4)c3C2)nc1C(=O)O` (centres unmarked) [Compound 112, 6-[8-(1,3-benzothiazol-2-ylcarbamoyl)-3,4-dihydro-1H-isoquinolin-2-yl]-3-[4-[[7-[2-[[3-(2,6-dioxo-3-piperidyl)-1-methyl-indazol-6-yl]amino]-2-oxo-ethyl]-7-azaspiro[3.5]nonan-2-yl]oxy]-2-methyl-phenyl]pyridine-2-carboxylic acid] are below 10 nM and “A (Ymin < 30%)”.
On the same counts, the results for `Cc1cc(OCCCC2CCN(Cc3nc4ccc(C5CCC(=O)NC5=O)cc4[nH]3)CC2)ccc1-c1ccc(N2CCc3cccc(C(=O)Nc4nc5ccccc5s4)c3C2)nc1C(=O)O` (centres unmarked) [Compound 2003] are 10 to 100 nM and “C (50% ≤ Ymin < 70%)”.
Take `Cc1c(OCC2CC3(CCN(CCCc4ccc5c(C6CCC(=O)NC6=O)nn(C)c5c4)CC3)C2)cccc1-c1ccc(N2CCc3cccc(C(=O)Nc4nc5ccccc5s4)c3C2)nc1C(=O)O` (centres unmarked) [Compound 149, 6-[8-(1,3-benzothiazol-2-ylcarbamoyl)-3,4-dihydro-1H-isoquinolin-2-yl]-3-[3-[[7-[3-[3-(2,6-dioxo-3-piperidyl)-1-methyl-indazol-6-yl]propyl]-7-azaspiro[3.5]nonan-2-yl]methoxy]-2-methyl-phenyl]pyridine-2-carboxylic acid]: the DC50 was below 10 nM and the “Ymin (24 h)” value is given as “A (Ymin < 30%)”.
For the compound `Cc1cc(OCCCC2(O)CCN(CC(=O)Nc3ccc4c(C5CCC(=O)NC5=O)nn(C)c4c3)CC2)ccc1-c1ccc(N2CCc3cccc(C(=O)Nc4nc5ccccc5s4)c3C2)nc1C(=O)O` (centres unmarked) [Compound 107, 6-(8-(benzo[d]thiazol-2-ylcarbamoyl)-3,4-dihydroisoquinolin-2(1H)-yl)-3-(4-(3-(1-(2-((3-(2,6-dioxopiperidin-3-yl)-1-methyl-1H-indazol-6-yl)amino)-2-oxoethyl)-4-hydroxypiperidin-4-yl)propoxy)-2-methylphenyl)picolinic acid], the DC50 is below 10 nM and the “Ymin (24 h)” value is “A (Ymin < 30%)”.
`Cn1nc(C2CCC(=O)NC2=O)c2ccc(NC(=O)CN3CCC4(CC3)CC(Oc3cccc(-c5ccc(N6CCc7cccc(C(=O)Nc8nc9ccccc9s8)c7C6)nc5C(=O)O)c3C(F)(F)F)C4)c(F)c21` (centres unmarked) [Compound 188, 6-(8-(benzo[d]thiazol-2-ylcarbamoyl)-3,4-dihydroisoquinolin-2(1H)-yl)-3-(3-((7-(2-((3-(2,6-dioxopiperidin-3-yl)-7-fluoro-1-methyl-1H-indazol-6-yl)amino)-2-oxoethyl)-7-azaspiro[3.5]nonan-2-yl)oxy)-2-(trifluoromethyl)phenyl)picolinic acid]: the DC50 is below 10 nM and the “Ymin (24 h)” value is on record as “B (30% ≤ Ymin < 50%)”.
For `C[C@@H]1C[C@@H](CCCOc2ccc(-c3ccc(N4CCc5cccc(C(=O)Nc6nc7ccccc7s6)c5C4)nc3C(=O)O)c(C(F)(F)F)c2)CCN1CC(=O)Nc1ccc2c(C3CCC(=O)NC3=O)nn(C)c2c1` (some centres unmarked) [Compound 209d], in that order: below 10 nM and “B (30% ≤ Ymin < 50%)”.
For `Cn1nc(C2CCC(=O)NC2=O)c2ccc(NC(=O)CN3CCN(CCCO[C@H]4CC[C@H](c5ccc(N6CCc7cccc(C(=O)Nc8nc9ccccc9s8)c7C6)nc5C(=O)O)CC4)CC3)cc21` (some centres unmarked) [Compound 2001a], the DC50 was below 10 nM and the “Ymin (24 h)” value is reported as “B (30% ≤ Ymin < 50%)”.
For the compound `COc1cc2c(C3CCC(=O)NC3=O)nn(C)c2cc1NC(=O)CN1CCC2(CC1)CC(COc1cccc(-c3ccc(N4CCc5cccc(C(=O)Nc6nc7ccccc7s6)c5C4)nc3C(=O)O)c1C)C2` (centres unmarked) [Compound 126], the DC50 was 100 to 1000 nM and the “Ymin (24 h)” value is on record as “C (50% ≤ Ymin < 70%)”.
For `COc1c(NC(=O)CN2CCC3(CC2)CC(COc2cccc(-c4ccc(N5CCc6cccc(C(=O)Nc7nc8ccccc8s7)c6C5)nc4C(=O)O)c2C(F)(F)F)C3)ccc2c(C3CCC(=O)NC3=O)nn(C)c12` (centres unmarked) [Compound 143, 6-(8-(benzo[d]thiazol-2-ylcarbamoyl)-3,4-dihydroisoquinolin-2(1H)-yl)-3-(3-((7-(2-((3-(2,6-dioxopiperidin-3-yl)-7-methoxy-1-methyl-1H-indazol-6-yl)amino)-2-oxoethyl)-7-azaspiro[3.5]nonan-2-yl)methoxy)-2-(trifluoromethyl)phenyl)picolinic acid], in that order: 10 to 100 nM and “B (30% ≤ Ymin < 50%)”.
For `C[C@H](COc1ccc(-c2ccc(N3CCc4cccc(C(=O)Nc5nc6ccccc6s5)c4C3)nc2C(=O)O)c(C(F)(F)F)c1)CC1CCN(CC(=O)Nc2ccc3c(C4CCC(=O)NC4=O)nn(C)c3c2)CC1` (single isomer, unassigned) [Compound 130b], in that order: 10 to 100 nM and “B (30% ≤ Ymin < 50%)”.
As to `Cc1c(OC[C@@H]2C[C@@H]2C2CCN(CC(=O)Nc3ccc4c(C5CCC(=O)NC5=O)nn(C)c4c3)CC2)cccc1-c1ccc(N2CCc3cccc(C(=O)Nc4nc5ccccc5s4)c3C2)nc1C(=O)O` (single isomer, unassigned) [Compound 1001d], the DC50 was 10 to 100 nM and the “Ymin (24 h)” value was “B (30% ≤ Ymin < 50%)”.
Consider `Cc1cc(OCCC[C@@H]2CCN(CC(=O)Nc3ccc4c(C5CCC(=O)NC5=O)nn(C)c4c3)[C@@H](C)C2)ccc1-c1ccc(N2CCc3cccc(C(=O)Nc4nc5ccccc5s4)c3C2)nc1C(=O)O` (some centres unmarked) [Compound 210a], for which the DC50 lay within 10 to 100 nM and the “Ymin (24 h)” value is reported as “A (Ymin < 30%)”.
On the same counts, the results for `Cn1nc(C2CCC(=O)NC2=O)c2ccc(NC(=O)CN3CCC4(CC3)CC(Oc3cccc(-c5ccc(N6CCc7ccnc(C(=O)Nc8nc9ccccc9s8)c7C6)nc5C(=O)O)c3C(F)(F)F)C4)c(F)c21` (centres unmarked) [Compound 214] are below 10 nM and “B (30% ≤ Ymin < 50%)”.
For `Cn1nc(C2CCC(=O)NC2=O)c2ccc(NC(=O)CN3CCC4(CC3)CC(COc3cccc(-c5ccc(N6CCc7cccc(C(=O)Nc8nc9ccccc9s8)c7C6)nc5C(=O)O)c3C(F)(F)F)C4)c(F)c21` (centres unmarked) [Compound 185], in that order: 10 to 100 nM and “B (30% ≤ Ymin < 50%)”.
On the same counts, the results for `C[C@@H](CCC1CCN(CC(=O)Nc2ccc3c(C4CCC(=O)NC4=O)nn(C)c3c2)CC1)Oc1ccc(-c2ccc(N3CCc4cccc(C(=O)Nc5nc6ccccc6s5)c4C3)nc2C(=O)O)c(C(F)(F)F)c1` (single isomer, unassigned) [Compound 138a] are below 10 nM and “B (30% ≤ Ymin < 50%)”.
On to `Cn1nc(C2CCC(=O)NC2=O)c2ccc(NC(=O)CN3CCC(CCCOc4ccc(-c5ccc(N6CCc7cccc(C(=O)Nc8nc9ccccc9s8)c7C6)nc5C(=O)O)c(C(F)(F)F)c4)CC3)nc21` (centres unmarked) [Compound 146], for which the DC50 lay in the range of 10 to 100 nM and the “Ymin (24 h)” value is recorded as “B (30% ≤ Ymin < 50%)”.
In the case of `Cc1cc(OCCC[C@@H]2CCN(CC(=O)Nc3ccc4c(C5CCC(=O)NC5=O)nn(C)c4c3)[C@@H](C)C2)ccc1-c1ccc(N2CCc3ccnc(C(=O)Nc4nc5ccccc5s4)c3C2)nc1C(=O)O` (some centres unmarked) [Compound 219a], the DC50 is below 10 nM and the “Ymin (24 h)” value was “A (Ymin < 30%)”.
On the same counts, the results for `Cn1nc(C2CCC(=O)NC2=O)c2ccc(NC(=O)CN3CCC4(CC3)CC(Oc3ccc(-c5ccc(N6CCc7ccnc(C(=O)Nc8nc9ccccc9s8)c7C6)nc5C(=O)O)c(C(F)(F)F)c3)C4)nc21` (centres unmarked) [Compound 206] are 10 to 100 nM and “B (30% ≤ Ymin < 50%)”.
On the same counts, the results for `Cn1nc(C2CCC(=O)NC2=O)c2ccc(NC(=O)CN3CCC4(CC3)CC(Oc3cccc(-c5ccc(N6CCc7cccc(C(=O)Nc8nc9ccccc9s8)c7C6)nc5C(=O)O)c3C(F)(F)F)C4)cc21` (centres unmarked) [Compound 169, 6-(8-(benzo[d]thiazol-2-ylcarbamoyl)-3,4-dihydroisoquinolin-2(1H)-yl)-3-(3-((7-(2-((3-(2,6-dioxopiperidin-3-yl)-1-methyl-1H-indazol-6-yl)amino)-2-oxoethyl)-7-azaspiro[3.5]nonan-2-yl)oxy)-2-(trifluoromethyl)phenyl)picolinic acid] are below 10 nM and “B (30% ≤ Ymin < 50%)”.
In the case of `Cc1cc(OCC2CC3(CCN(CC(=O)Nc4ccc5c(C6CCC(=O)NC6=O)nn(C)c5c4)CC3)C2)ccc1-c1ccc(N2CCc3ccnc(C(=O)Nc4nc5ccccc5s4)c3C2)nc1C(=O)O` (centres unmarked) [Compound 135, 6-[8-(1,3-benzothiazol-2-ylcarbamoyl)-3,4-dihydro-1H-2,7-naphthyridin-2-yl]-3-[4-[[7-[2-[[3-(2,6-dioxo-3-piperidyl)-1-methyl-indazol-6-yl]amino]-2-oxo-ethyl]-7-azaspiro[3.5]nonan-2-yl]methoxy]-2-methyl-phenyl]pyridine-2-carboxylic acid], the DC50 was below 10 nM and the “Ymin (24 h)” value was “A (Ymin < 30%)”.
On the same counts, the results for `Cn1nc(C2CCC(=O)NC2=O)c2ccc(NC(=O)CN3CCC(CCCOc4cccc(-c5ccc(N6CCc7cccc(C(=O)Nc8nc9ccccc9s8)c7C6)nc5C(=O)O)c4C(F)(F)F)CC3)nc21` (centres unmarked) [Compound 145] are 10 to 100 nM and “C (50% ≤ Ymin < 70%)”.
